Measured values taken from PubChem BioAssay AID330 (DTP/NCI, 2004).
“And” between values parts separate entries of the source, which are not always exact repeats. Equal values may be shown once. Toxic doses and inconclusive results are not listed. How the source made its calls: active means survival T/C of 150% or more; inactive means T/C below 125% in these data.

Test system: P388 leukemia ip, CD2F1 mice, survival T/C
Test: NCI In Vivo Anticancer Drug Screen. Data for tumor model P388 Leukemia (intraperitoneal) in CD2F1 (CDF1) mice
Conditions: endpoint: median survival time, higher = longer survival
Summary of the method: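 Mice carrying the transplanted tumor received test compound or vehicle. Survival was recorded in each group, and the value is the treated-group measurement divided by that of the vehicle-treated control group.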

[1] = dose: 50.0 mg/kg/injection, schedule: Q01DX005 (ip), vehicle: saline with Tween-80
[2] = dose: 6.25 mg/kg/injection, schedule: Q01DX009 (ip), vehicle: Klucel (hydroxypropylcellulose) (HPC)
[3] = dose: 12.5 mg/kg/injection, schedule: Q01DX009 (ip), vehicle: Klucel (hydroxypropylcellulose) (HPC)
[4] = dose: 25.0 mg/kg/injection, schedule: Q01DX009 (ip), vehicle: Klucel (hydroxypropylcellulose) (HPC)
[5] = dose: 60.0 mg/kg/injection, schedule: Q01DX005 (ip), vehicle: saline with Tween-80
[6] = dose: 120.0 mg/kg/injection, schedule: Q01DX005 (ip), vehicle: saline with Tween-80
[7] = dose: 240.0 mg/kg/injection, schedule: Q01DX005 (ip), vehicle: saline with Tween-80
[8] = dose: 100.0 mg/kg/injection, schedule: Q04DX003 (ip), vehicle: Klucel (hydroxypropylcellulose) (HPC)
[9] = dose: 200.0 mg/kg/injection, schedule: Q04DX003 (ip), vehicle: Klucel (hydroxypropylcellulose) (HPC)

Measured: T/C

CC(O)CCC1CCCCN1 (stereo not given)
inactive: dose: 50.0 mg/kg/injection, schedule: Q01DX005 (ip), vehicle: saline 109 % of control | dose: 100.0 mg/kg/injection, schedule: Q01DX005 (ip), vehicle: saline 100 % of control | dose: 200.0 mg/kg/injection, schedule: Q01DX005 (ip), vehicle: saline 101 % of control

CC(=O)N1CC(O)(c2ccccc2)CSc2ccccc21 (stereo not given)
inactive: dose: 50.0 mg/kg/injection, schedule: Q01DX005 (ip), vehicle: Klucel (hydroxypropylcellulose) (HPC) 95 % of control | dose: 100.0 mg/kg/injection, schedule: Q01DX005 (ip), vehicle: Klucel (hydroxypropylcellulose) (HPC) 95 % of control | dose: 200.0 mg/kg/injection, schedule: Q01DX005 (ip), vehicle: Klucel (hydroxypropylcellulose) (HPC) 96 % of control

CC(C)CC(=O)CC(c1ccccc1)C(C(=O)/C=C/c1ccccc1)C(C)C (stereo not given)
inactive: dose: 12.5 mg/kg/injection, schedule: Q01DX005 (ip), vehicle: saline with Tween-80 94 % of control | dose: 25.0 mg/kg/injection, schedule: Q01DX005 (ip), vehicle: saline with Tween-80 94 % of control | [1] 87 % of control and 92 % of control

O=[N+]([O-])c1ccc(SC(=S)N(c2ccccc2)c2ccccc2)c([N+](=O)[O-])c1
inactive: [2] 104 % of control | [3] 102 % of control | [4] 102 % of control | dose: 50.0 mg/kg/injection, schedule: Q01DX009 (ip), vehicle: Klucel (hydroxypropylcellulose) (HPC) 102 % of control

CCC1(c2ccccc2)Nc2ccccc2C1=Nc1ccccc1 (stereo not given)
inactive: dose: 50.0 mg/kg/injection, schedule: Q04DX003 (ip), vehicle: saline with Tween-80 100 % of control | dose: 100.0 mg/kg/injection, schedule: Q04DX003 (ip), vehicle: saline with Tween-80 99 % of control | dose: 200.0 mg/kg/injection, schedule: Q04DX003 (ip), vehicle: saline with Tween-80 90 % of control

CC(C)N(C(=O)c1ccc([Si](C)(C)C)c(C(=O)N(C(C)C)C(C)C)n1)C(C)C
inactive: [5] 98 % of control | [6] 94 % of control | [7] 98 % of control

COc1c(C(C)C)ccc2c1CCC1C3=C(CCC21C)C(=O)OC3 (stereo not given)
inactive: dose: 6.25 mg/kg/injection, schedule: Q01DX009 (ip), vehicle: DMSO 109 % of control | dose: 12.5 mg/kg/injection, schedule: Q01DX009 (ip), vehicle: DMSO 100 % of control | dose: 25.0 mg/kg/injection, schedule: Q01DX009 (ip), vehicle: DMSO 106 % of control

Clc1ccc2c(N3CCC(CCC4CCN(c5ncnc6cc(Cl)ccc56)CC4)CC3)ncnc2c1
inactive: [1] 96 % of control | dose: 100.0 mg/kg/injection, schedule: Q01DX005 (ip), vehicle: saline with Tween-80 94 % of control | dose: 200.0 mg/kg/injection, schedule: Q01DX005 (ip), vehicle: saline with Tween-80 88 % of control

CC(OC(=O)Nc1cccc2ccccc12)C(N)=O (stereo not given)
inactive: [8] 91 % of control | [9] 95 % of control | dose: 400.0 mg/kg/injection, schedule: Q04DX003 (ip), vehicle: Klucel (hydroxypropylcellulose) (HPC) 96 % of control

C=C(N)/C=C1/NC(C)=CS1
inactive: dose: 15.0 mg/kg/injection, schedule: Q01DX005 (ip), vehicle: saline 96 % of control | dose: 30.0 mg/kg/injection, schedule: Q01DX005 (ip), vehicle: saline 96 % of control | dose: 60.0 mg/kg/injection, schedule: Q01DX005 (ip), vehicle: saline 91 % of control and 94 % of control

C/C(=C/c1ccccc1)C(=O)C1C(c2ccccc2)CC(O)C(C)C1c1ccccc1 (stereo not given)
inactive: [8] 93 % of control | [9] 88 % of control

C=C(C)C(=O)c1ccc(C(=O)O)cc1
inactive: dose: 12.5 mg/kg/injection, schedule: Q04DX002 (ip), vehicle: saline with Tween-80 105 % of control | dose: 25.0 mg/kg/injection, schedule: Q04DX002 (ip), vehicle: saline with Tween-80 114 % of control | dose: 50.0 mg/kg/injection, schedule: Q04DX002 (ip), vehicle: saline with Tween-80 122 % of control

O=C1C=CC(=O)N1C1CCCCC1
inactive: [2] 97 % of control | [3] 100 % of control | [4] 97 % of control

S=c1nnn(C2CCCN2)[nH]1 (stereo not given)
inactive: dose: 100.0 mg/kg/injection, schedule: Q01DX001 (ip), vehicle: Klucel (hydroxypropylcellulose) (HPC) 100 % of control | dose: 200.0 mg/kg/injection, schedule: Q01DX001 (ip), vehicle: Klucel (hydroxypropylcellulose) (HPC) 97 % of control | dose: 400.0 mg/kg/injection, schedule: Q01DX001 (ip), vehicle: Klucel (hydroxypropylcellulose) (HPC) 100 % of control

CC1(C)C/C(=N/NC(N)=S)C(=NO)/C(=N\NC(N)=S)C1
inactive: [5] 123 % of control | [6] 110 % of control | [7] 113 % of control
